Laboratory results as given in US10683453B2, “Organic compounds with soluble groups” (Merck Patent GmbH, priority 2014, dated 2020).

assay: Determination of solubility in toluene; format: physicochemical; details: stirred at 60° C. for 1 h, cooled to room temperature, yes = clear solution lacking any large particles
Description: Determination of Solubility
In order to examine whether a material has a toluene solubility of 10 mg/ml or more, the procedure is as follows: 20 mg of material in solid form are initially charged in a sample bottle. At room temperature (20° C.), 2 ml of toluene are added. The bottle is closed and the contents are stirred at 60° C. on a heatable magnetic stirrer for 1 h. In the course of this, good thermal contact is ensured by means of an aluminium block having holes into which the bottles fit exactly. After 1 h, the bottle is removed and left to cool to room temperature. If a clear solution lacking any large particles is present in the bottle, at least 10 mg/ml of the material are soluble in toluene.
Solubilities with other solubility limits are determined in entirely the same way. The starting weight is also matched to 2 ml of solvent.

SMILES | Solubility in toluene > 2 mg/ml | Solubility in toluene > 5 mg/ml | Solubility in toluene > 10 mg/ml
N#Cc1ccc2c(c1)C1(c3cc(C#N)ccc3-2)c2ccccc2N(c2cc(-c3ccccc3)cc(-c3ccccc3)c2)c2ccccc21 [Compound 6a, 2′,7′-Cyano-10H-terphenyl-10H-spiro(acridine-9,9′-fluorene)] | yes | yes | no
CCCCCCc1cc(CCCCCC)cc(N2c3ccccc3C3(c4ccccc4C(=C(C#N)C#N)c4ccccc43)c3ccccc32)c1 [Compound 9a] | yes | yes | yes
N#CC(C#N)=C1c2ccccc2C2(c3ccccc31)c1ccccc1N(c1c(-c3ccccc3)cc(-c3ccccc3)cc1-c1ccccc1)c1ccccc12 [Compound 9e] | yes | yes | no
CCCCCCc1ccc2c(c1)c1cc(CCCCCC)ccc1n2-c1c(C#N)c(-n2c3ccc(CCCCCC)cc3c3cc(CCCCCC)ccc32)c(C#N)c(-n2c3ccc(CCCCCC)cc3c3cc(CCCCCC)ccc32)c1C#N [Compound 19d] | yes | yes | yes
N#Cc1c(-n2c3ccccc3c3ccccc32)c(C#N)c(-n2c3ccccc3c3ccccc32)c(-n2c3ccccc3c3ccccc32)c1-n1c2ccccc2c2ccccc21 [reference compound] | yes | no | no
N#Cc1ccc2c(c1)C1(c3cc(C#N)ccc3-2)c2ccccc2N(c2ccccc2)c2ccccc21 [reference compound] | no | no | no
N#CC(C#N)=C1c2ccccc2C2(c3ccccc31)c1ccccc1N(c1ccccc1)c1ccccc12 [reference compound] | yes | no | no
